Test results from publication PMC11435328, “An Innovative Inhibitor with a New Chemical Moiety Aimed at Biliverdin IXβ Reductase for Thrombocytopenia and Resilient against Cellular Degradation” (Pharmaceutics, 2024).
Where two headings read alike, the source gives them in different places.

What was measured:
apo-BLVRB = target: T1, apo-BLVRB (Homo sapiens, UniProt P30043); experiment: NMR 1H-15N HSQC chemical shift perturbation titration of apo-BLVRB; assay type: binding; settings: for Kd: Apo-BLVRB from NMR CSP experiment; for binding to apo-BLVRB: HSQC of apo-BLVRB titrated with drug (Figure S4)
T1 construct: His6 (N); made in house; host or cells: E. coli BL21(DE3), pET-21b
T1 sequence (P30043 1-206): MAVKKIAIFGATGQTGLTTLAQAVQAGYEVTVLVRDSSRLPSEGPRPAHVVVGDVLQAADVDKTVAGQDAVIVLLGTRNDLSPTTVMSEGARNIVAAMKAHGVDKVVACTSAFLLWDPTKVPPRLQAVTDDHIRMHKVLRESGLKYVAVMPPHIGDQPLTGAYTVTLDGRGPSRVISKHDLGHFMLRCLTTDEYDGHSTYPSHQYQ
Method: The human BLVRB protein was prepared following the previously reported method. Briefly, the N-terminal His6-tagged BLVRB was expressed in the E. coli BL21(DE3) strain using the pET-21b protein expression vector. The transformed E. coli cells were grown in LB and M9 media at 37 °C to express the nonlabeled and isotope-labeled (^15N or ^13C/^15N) BLVRB proteins, respectively. To induce protein expression, 0.5 mM IPTG was added to the cultures when the OD600 reached 0.8, and then the cells were harvested after ~3–4 h. Cells were lysed by sonication in buffer (pH 8.0, 25 mM Tris-HCl, 500 mM NaCl, and 10 mM β-mercaptoethanol). The BLVRB protein was first purified by His-tag affinity column chromatography using the HisTrap HP column (Cytiva). To remove the His-tag, the protein elution was dialyzed in buffer (pH 8.0, 50 mM Tris-HCl, and 1 mM dithiothreitol) overnight at 4 °C, after adding thrombin (~5 units per mg protein). Since thrombin bound to HiTrap-Q HP column at pH 8.0, ion-exchange column chromatography was performed with buffer (pH 8.0, 25 mM Tris-HCl, and 1 mM dithiothreitol), and then the elution was performed with 1.0 M NaCl gradient; BLVRB and thrombin eluted at ~150 and ~300 mM NaCl, respectively. To separate the His6-tagged BLVRB from the completely cleaved BLVRB, the HisTrap HP column was tandemly attached to the next of the HiTrap-Q column. The BLVRB protein was further purified by size exclusion chromatography (SEC) using the HiLoad 16/600 Superdex 75 (Cytiva) with nonbuffered solution (50 mM NaCl and 1 mM dithiothreitol). The protein fractions were concentrated using an ultracentrifugal filter with 10 kDa MWCO (Millipore, Burlington, MA, USA) and then were stored at −70 °C before use. Apo-BLVRB was prepared using the previously reported refolding method, with additional column chromatography steps. Briefly, the purified BLVRB was denatured in buffer (pH 7.5, 25 mM Tris-HCl, 10 mM β-mercaptoethanol, and 6.0 M urea) and then applied to the HisTrap HP column. After washing with buffer (pH 5.0, 25 mM Na-acetate, 10 mM β-mercaptoethanol, and 6.0 M urea), they were eluted with an additional 1.0 M NaCl gradient. […] The concentration was also determined using UV absorption with an extinction coefficient (A280) of 14,440 M^−1⋅cm^−1. […]
(§1) All NMR experiments were performed with the Bruker 800 MHz spectrometer at 25 °C. A total of 0.2 mM ^15N-labeled BLVRB or apo-BLVRB was prepared in buffer (pH 6.5, 50 mM Bis-tris, 50 mM NaCl, and 5% D2O), and their ^1H-^15N heteronuclear single-quantum coherence (HSQC) spectra were recorded in the presence and absence of drug molecules. […] The diffusion-ordered spectroscopy (DOSY) spectra were measured using the ledbpgppr2s, with 80 ms diffusion delay, 2 s relaxation delay, and 32 gradient strength increments. […]

[1] = tested on: T2, Escherichia coli (E. coli) AzoR; experiment: Cleavage by partially purified AzoR fraction, monitored by 1D 1H NMR; assay type: in vitro ADME; settings: incubation with column fraction containing AzoR activity and NAD(P)H
T2 construct: E. coli DH5α cells were cultured in LB medium to obtain AzoR protein at 37 °C; endogenous in cells; host or cells: E. coli DH5α induced with 2-MHQ; Hitrap-Q anion-exchange fraction
Method: E. coli DH5α cells were cultured in LB medium to obtain AzoR protein at 37 °C. Since various electrophilic quinones increase the mRNA level of the acpD gene-encoding AzoR protein [36], 0.5 mM methylhydroquinone (2-MHQ) was added to the culture when the optical density of the cells at 600 nm (OD600) reached 0.8. The cells were harvested by centrifugation after ~3–4 h. To enrich the AzoR protein, anion-exchange column chromatography using the Hitrap-Q HP column (Cytiva, Marlborough, MA, USA) was performed, in which the column was pre-equilibrated with buffer (pH 8.0, 25 mM Tris-HCl), and then 1.0 M NaCl gradient was applied to elute proteins. The AzoR activity in the elution fractions was measured by the enzyme activity assay using 0.1 mM menadione and 0.1 mM NADH, in which decreasing absorption at 340 nm was measured following the previously reported method. […]
as §1

BLVRB = target: T3, BLVRB (Homo sapiens, UniProt P30043); experiment: BLVRB enzyme activity assay (NADPH absorption at 340 nm, FMN substrate); assay type: biochemical; settings: for uncompetitive inhibition constant (Kiu) / Ki: 0.5 µM BLVRB, 100 µM FMN, 100 µM NADPH, PBS, 0.5% DMSO, mixed inhibition model; for Ki: read-out: competitive inhibition constant (Kic); for inhibition pattern (Lineweaver–Burk plot): BLVRB in the presence of NADPH; for maximum velocity (Vm): enzyme parameter of BLVRB from the fit of the data set with this inhibitor
T3 construct: His6 (N, cleaved yes); made in house; host or cells: E. coli BL21(DE3), pET-21b
T3 sequence (P30043 1-206): T1 sequence (P30043 1-206)
Method: Enzyme kinetics were monitored using the absorption of NADPH at 340 nm with the SpectraMax Gemini EM Microplate Reader (Molecular Devices, San Jose, CA, USA). The enzyme reactions were conducted with 0.5 µM BLVRB, 100 µM FMN, and 100 µM NADPH in PBS buffer containing 0.5% DMSO in the presence of various concentrations of inhibitors (OSK and OSA). The initial velocities of the reactions were estimated from data collected over 5 min and were fitted to the Michaelis–Menten equation. The inhibition model and inhibition constants were determined using the in-house Python script of nonlinear least squares regression fitting.

[2] = target: T4, human BLVRB (half-holo BLVRB) (Homo sapiens, UniProt P30043); experiment: Isothermal titration calorimetry (ITC) of drug binding to half-holo BLVRB; settings: 25 °C
T4 construct: His6 (N, cleaved yes); made in house; host or cells: E. coli BL21(DE3), pET-21b
T4 sequence (P30043 1-206): T1 sequence (P30043 1-206)
Method: The human BLVRB protein was prepared following the previously reported method. Briefly, the N-terminal His6-tagged BLVRB was expressed in the E. coli BL21(DE3) strain using the pET-21b protein expression vector. The transformed E. coli cells were grown in LB and M9 media at 37 °C to express the nonlabeled and isotope-labeled (^15N or ^13C/^15N) BLVRB proteins, respectively. To induce protein expression, 0.5 mM IPTG was added to the cultures when the OD600 reached 0.8, and then the cells were harvested after ~3–4 h. Cells were lysed by sonication in buffer (pH 8.0, 25 mM Tris-HCl, 500 mM NaCl, and 10 mM β-mercaptoethanol). The BLVRB protein was first purified by His-tag affinity column chromatography using the HisTrap HP column (Cytiva). To remove the His-tag, the protein elution was dialyzed in buffer (pH 8.0, 50 mM Tris-HCl, and 1 mM dithiothreitol) overnight at 4 °C, after adding thrombin (~5 units per mg protein). Since thrombin bound to HiTrap-Q HP column at pH 8.0, ion-exchange column chromatography was performed with buffer (pH 8.0, 25 mM Tris-HCl, and 1 mM dithiothreitol), and then the elution was performed with 1.0 M NaCl gradient; BLVRB and thrombin eluted at ~150 and ~300 mM NaCl, respectively. To separate the His6-tagged BLVRB from the completely cleaved BLVRB, the HisTrap HP column was tandemly attached to the next of the HiTrap-Q column. The BLVRB protein was further purified by size exclusion chromatography (SEC) using the HiLoad 16/600 Superdex 75 (Cytiva) with nonbuffered solution (50 mM NaCl and 1 mM dithiothreitol). The protein fractions were concentrated using an ultracentrifugal filter with 10 kDa MWCO (Millipore, Burlington, MA, USA) and then were stored at −70 °C before use. Apo-BLVRB was prepared using the previously reported refolding method, with additional column chromatography steps. Briefly, the purified BLVRB was denatured in buffer (pH 7.5, 25 mM Tris-HCl, 10 mM β-mercaptoethanol, and 6.0 M urea) and then applied to the HisTrap HP column. After washing with buffer (pH 5.0, 25 mM Na-acetate, 10 mM β-mercaptoethanol, and 6.0 M urea), they were eluted with an additional 1.0 M NaCl gradient. After 2-fold dilution with buffer (pH 5.0, 20 mM Na-acetate, 10 mM β-mercaptoethanol, and 6.0 M urea), apo-BLVRB was further purified by cation-exchange column chromatography using the HiTrap-SP column (Cytiva). Protein elution was performed by 1.0 M NaCl gradient in the presence of 6.0 M urea. The protein was refolded by dialysis in buffer (pH 6.5, 50 mM Bis-tris, 150 mM NaCl, and 1 mM DTT). After removing the aggregate (~20%) by centrifuge, it was purified by SEC using the HiLoad 16/600 Superdex 75 with buffer (pH 6.5, 10 mM Bis-tris, 50 mM NaCl, and 1 mM DTT). The apo-BLVRB solution was concentrated and then stored at −70 °C. Although thawing the frozen sample caused ~10% precipitation of apo-BLVRB, the maintenance of the structure was confirmed by ^1H-^15N HSQC spectrum. The concentration was also determined using UV absorption with an extinction coefficient (A280) of 14,440 M^−1⋅cm^−1. The purity was confirmed by SDS-PAGE gel analysis.
The ITC experiment was conducted in buffer (pH 6.5, 50 mM Bis-tris, 50 mM NaCl, and 0.1 mM TCEP) using a Microcal Auto-iTC200 (Malvern Instruments, Malvern, UK) at 25 °C. The calorimetric cell (200 μL) and syringe (40 μL) were loaded with 0.09 mM BLVRB and 1.1 mM drug (OSK or OSA), respectively. The ITC data were analyzed after subtracting the heat from blank injections that were measured under the same conditions but in the absence of BLVRB. Data processing was carried out using the Origin software provided by the manufacturer, where the fittings were performed with a one-site binding model.

rats = tested on: rats; parameters: method as in PMID 2160137; settings: cited from earlier work
half-holo BLVRB = tested on: T5, half-holo BLVRB; experiment: 1H-15N HSQC of half-holo BLVRB with 5-ASA; assay type: binding, human; settings: 0.1 mM half-holo BLVRB, 1 mM 5-ASA, HSQC (Figure S3)
T5 construct: His6 (N, cleaved yes); made in house; host or cells: E. coli BL21(DE3), pET-21b
Method: All NMR experiments were performed with the Bruker 800 MHz spectrometer at 25 °C. A total of 0.2 mM ^15N-labeled BLVRB or apo-BLVRB was prepared in buffer (pH 6.5, 50 mM Bis-tris, 50 mM NaCl, and 5% D2O), and their ^1H-^15N heteronuclear single-quantum coherence (HSQC) spectra were recorded in the presence and absence of drug molecules. The 1-dimensional (1D) ^1H spectra to monitor the enzyme reactions were conducted in PBS buffer. The chemical shift perturbation (CSP) data were presented using the square root of (ΔH)^2 + [(ΔN)/6]^2 to normalize the relative effects from the CSPs of ^1H and ^15N [44]. The diffusion-ordered spectroscopy (DOSY) spectra were measured using the ledbpgppr2s, with 80 ms diffusion delay, 2 s relaxation delay, and 32 gradient strength increments. The backbone assignments were referenced from BMRB Entry ID: 27463 for holo BLVRB and Entry ID: 27462 for apo BLVRB to assign the spectra in the presence and absence of the drug.
Figure S3. 5-ASA binding of half-holo BLVRB: (A) The 1H-15N HSQC spectra of 0.1 mM half-holo BLVRB in the absence (black) and presence (red) of 1 mM 5-ASA. (B) Chemical shift diﬀerences between half-holo BLVRB and BLVRB in complex with OSK (black) and 5-ASA (red). (C) NMR ti-tration data for binding to half-holo BLVRB. […]

[3] = target: T4, human BLVRB (half-holo BLVRB); parameters: method as in PMID 34957824; settings: ITC, 25 °C; cited from earlier work
[4] = cited from earlier work

SMILES | Kd (apo-BLVRB) [µM] | binding to apo-BLVRB (apo-BLVRB) | cleavage by AzoR [1] | uncompetitive inhibition constant (Kiu) (BLVRB) [µM] | Ki (BLVRB) [µM] | inhibition pattern (Lineweaver–Burk plot) (BLVRB) | maximum velocity (Vm) (BLVRB) [µM/min] | Kd [2] [µM] | TΔS [2] [kcal/mol] | ΔG [2] [kcal/mol] | ΔH [2] [kcal/mol] | also measured
O=C(O)c1cc(/C=C/c2ccc(O)c(C(=O)O)c2)ccc1O [Olsalkene, (E)-5,5′-(ethene-1,2-diyl)bis(2-hydroxybenzoic acid)] | 11.4 ± 2.22 | able to bind to the apo-BLVRB | remains intact and is not cleaved by AzoR | 0.61 ± 0.06 | 0.56 ± 0.1 | mixed inhibition pattern | 4.80 ± 0.16 | 0.14 ± 0.27 | -5.98 ± 0.17 | -9.33 ± 0.11 | -15.31 ± 0.12 | –
O=C1OC2(c3ccccc31)c1cc(I)c(O)c(I)c1Oc1c2cc(I)c(O)c1I [erythrosin B] | – | – | – | – | – | – | – | – | – | – | – | effect of chronic administration (rats): thyroid stimulation
Nc1ccc(O)c(C(=O)O)c1 [5-ASA, 5-aminosalicylic acid] | – | – | – | – | – | – | – | – | – | – | – | binding to BLVRB (half-holo BLVRB): reduced significantly
O=C([O-])c1c(Cl)c(Cl)c(Cl)c(Cl)c1-c1c2cc(Br)c(=O)c(Br)c-2oc2c(Br)c([O-])c(Br)cc12.[Na+].[Na+] [Phloxine B, phloxine B] | – | – | – | – | – | – | – | – | – | – | – | Kd [3]: 1.36 ± 0.22 µM; TΔS [3]: 4.12 ± 0.12 kcal/mol; ΔG [3]: -8.00 ± 0.10 kcal/mol; ΔH [3]: -3.88 ± 0.06 kcal/mol
O=C(O)c1cc(/N=N/c2ccc(O)c(C(=O)O)c2)ccc1O [Olsalazine, olsalazine] | 9.31 ± 2.41 | able to bind to the apo-BLVRB | cleavage of its diazenyl bond and the formation of 5-ASA | 0.79 ± 0.06 | 0.55 ± 0.04 | mixed inhibition pattern | 4.71 ± 0.09 | 0.15 ± 0.23 | -4.22 ± 0.13 | -9.32 ± 0.09 | -13.54 ± 0.08 | plasma elimination half-life [4]: approximately 1 h
